# Measured values published in PubChem BioAssay (NCI).
# Values joined by “and” are separate entries in the source; they are usually repeats but may differ in a detail not shown here. Equal entries are not always repeated.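 Tested at 5 concentrations; 48 h exposure; 96-well plates; endpoints linearly interpolated, else capped at highest concentration. GI50 marks 50% less growth. TGI denotes the concentration required for complete inhibition of growth.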
# Experiments:
# Test in all cases: inhibition of tumour cell growth, NCI panel, 48 h
# [1] = system: NCI-H522 lung
# [2] = system: SNB-19 CNS
# [3] = system: SN12C renal
# [4] = system: SW-620 colon
# [5] = system: HCT-15 colon
# [6] = system: HOP-92 NSCLC
# [7] = system: OVCAR-3 ovarian
# [8] = system: NCI-H460 lung
# [9] = system: A549 NSCLC
# [10] = system: MDA-MB-231 breast
structure (smiles),measurement,setting,value
C=CCc1ccc(Oc2cc(CC=C)c3c(c2O)O[C@@H](CO)[C@H]3c2ccc(O)c(-c3cc(CC=C)ccc3O)c2)cc1,TGI,[1],32.6 µM
same,TGI,[2],> 100 µM
same,TGI,[3],> 100 µM
same,TGI,[4],> 100 µM
same,TGI,[5],> 100 µM
same,TGI,[6],> 100 µM
same,TGI,[7],> 100 µM
same,TGI,[8],> 100 µM
same,TGI,[9],> 100 µM
CCN(CC)c1ccc(N=Nc2ccc(-c3nc4ccc[n+](C)c4s3)cc2)cc1,TGI,[1],28.5 µM
same,TGI,[2],25.1 µM
same,TGI,[3],16.2 µM
same,TGI,[4],26.1 µM
same,TGI,[5],32.1 µM
same,TGI,[6],30.1 µM
same,TGI,[7],15.9 µM
same,TGI,[8],21.5 µM
same,TGI,[9],26.3 µM
O=C1/C(=C/c2cccc([N+](=O)[O-])c2)COc2ccc(Br)cc21,TGI,[1],> 100 µM
same,TGI,[4],> 100 µM
same,TGI,[6],> 100 µM
same,TGI,[7],> 100 µM
same,TGI,[8],> 100 µM
same,TGI,[9],> 100 µM
COc1c(CCl)cc(-c2cc(=O)c3ccccc3s2)cc1CCl,TGI,[2],> 88.9 µM
same,TGI,[3],> 100 µM
same,TGI,[5],> 100 µM
same,TGI,[6],1.8 µM
same,TGI,[7],> 100 µM
same,TGI,[8],> 100 µM
same,TGI,[9],> 100 µM
O=C1CC2c3ccccc3CCC2c2ccccc21 (centres undefined),TGI,[1],46.7 µM
same,TGI,[2],> 100 µM
same,TGI,[10],80 µM
same,TGI,[4],> 100 µM
same,TGI,[5],50.1 µM
same,TGI,[7],41.8 µM
same,TGI,[8],69.2 µM
same,TGI,[9],> 100 µM
COc1ccc(C(=O)COc2ccc(/C=C3\COc4ccc(OC)cc4C3=O)cc2)cc1,GI50,[1],16.7 µM
same,TGI,[1],74.5 µM
same,GI50,[2],29.8 µM
same,TGI,[2],> 100 µM
same,GI50,[3],30.9 µM
same,TGI,[3],> 100 µM
same,GI50,[10],30 µM
same,TGI,[10],92.5 µM
same,GI50,[4],4.99 µM
same,TGI,[4],> 100 µM
same,GI50,[5],22.3 µM
same,TGI,[5],> 100 µM
same,GI50,[7],21 µM
same,TGI,[7],62.2 µM
same,GI50,[8],57.5 µM
same,TGI,[8],> 100 µM
same,GI50,[9],> 100 µM
same,TGI,[9],> 100 µM
CSC(C1c2ccccc2N(c2ccc(C)cc2)c2[nH]c(=O)n(C)c(=O)c21)S(=O)(=O)c1ccc(C)cc1 (centres undefined),TGI,[1],> 100 µM
same,TGI,[2],> 100 µM
same,TGI,[3],> 100 µM
same,TGI,[4],> 100 µM
same,TGI,[6],> 100 µM
same,TGI,[7],> 100 µM
same,TGI,[8],> 100 µM
same,TGI,[9],> 100 µM
O=C(c1ccccc1)C1OC12C(=O)Nc1ccccc12 (centres undefined),TGI,[1],28.2 µM
same,TGI,[2],> 100 µM
same,TGI,[3],> 100 µM
same,TGI,[4],62.6 µM
same,TGI,[6],55.2 µM
same,TGI,[7],97 µM
same,TGI,[8],> 100 µM
same,TGI,[9],> 100 µM
O=C1NC2OC(C(O)CO)C(O)C2O1 (centres undefined),TGI,[1],> 100 µM
same,TGI,[2],> 100 µM
same,TGI,[3],> 100 µM
same,TGI,[4],> 100 µM
same,TGI,[5],> 100 µM
same,TGI,[6],> 100 µM
same,TGI,[7],> 100 µM
same,TGI,[8],> 100 µM
same,TGI,[9],> 100 µM
N#CC1CC2(C1)OCCS2 (centres undefined),TGI,[1],> 100 µM
same,TGI,[2],> 100 µM
same,TGI,[3],> 100 µM
same,TGI,[4],> 100 µM
same,TGI,[5],> 100 µM
same,TGI,[7],> 100 µM
same,TGI,[8],> 100 µM
same,TGI,[9],> 100 µM
NC(=O)NCc1c(C(N)=O)ncn1Cc1ccccc1,TGI,[2],> 100 µM
same,TGI,[3],> 100 µM
same,TGI,[4],> 100 µM
same,TGI,[5],> 100 µM
same,TGI,[6],> 100 µM
same,TGI,[7],> 100 µM
same,TGI,[8],> 100 µM
same,TGI,[9],> 100 µM
C1C[OH+]CC[OH+]CC[OH+]CC[OH+]CC[OH+]1.[Cl-].[V],GI50,[1],> 100 µM
same,TGI,[1],> 100 µM
same,GI50,[2],43.5 µM
same,TGI,[2],> 100 µM
same,GI50,[3],> 100 µM
same,TGI,[3],> 100 µM
same,GI50,[4],> 100 µM
same,TGI,[4],> 100 µM
same,GI50,[5],> 100 µM
same,TGI,[5],> 100 µM
same,GI50,[6],34.3 µM
same,TGI,[6],> 100 µM
same,GI50,[7],58.2 µM
same,TGI,[7],> 100 µM
same,GI50,[8],46.2 µM
same,TGI,[8],> 100 µM
same,GI50,[9],61.1 µM
same,TGI,[9],> 100 µM
O=C1OC2CCCC[C@@H]2C2C[C@]34CCCCC3[C@@H](C(=O)O4)C12 (some centres undefined),TGI,[1],> 100 µM
same,TGI,[2],> 100 µM
same,TGI,[3],> 100 µM
same,TGI,[4],> 100 µM
same,TGI,[5],> 100 µM
same,TGI,[6],> 100 µM
same,TGI,[7],> 100 µM
same,TGI,[8],> 100 µM
same,TGI,[9],> 100 µM
Cc1ccc(-c2nc3ccc(Cl)cc3c(=O)n2N2C(=O)CSC2c2ccccc2Cl)cc1 (centres undefined),GI50,[2],5 µM
same,TGI,[2],> 100 µM
same,GI50,[3],11.8 µM
same,TGI,[3],> 100 µM
same,GI50,[10],4.21 µM
same,TGI,[10],> 100 µM
same,GI50,[4],> 100 µM
same,TGI,[4],> 100 µM
same,GI50,[5],> 100 µM
same,TGI,[5],> 100 µM
same,GI50,[6],6.74 µM
same,TGI,[6],> 100 µM
same,GI50,[7],5.44 µM
same,TGI,[7],> 100 µM
same,GI50,[8],3.68 µM
same,TGI,[8],> 100 µM
Cc1c(C(=O)/C=C/c2ccccc2)[n+](=O)c2ccccc2n1[O-],TGI,[1],19.4 µM
same,TGI,[2],31.8 µM
same,TGI,[3],33.6 µM
same,TGI,[4],28.3 µM
same,TGI,[6],28 µM
same,TGI,[7],30.6 µM
same,TGI,[8],35.6 µM
same,TGI,[9],43.2 µM
COc1ccc2nc(NC(=O)C(=O)C(C#N)c3ccc([N+](=O)[O-])cc3)sc2c1 (centres undefined),TGI,[1],> 100 µM
same,TGI,[2],> 100 µM
same,TGI,[3],> 100 µM
same,TGI,[4],> 100 µM
same,TGI,[5],> 100 µM
same,TGI,[6],> 100 µM
same,TGI,[7],> 100 µM
same,TGI,[8],> 100 µM
same,TGI,[9],> 100 µM
Nc1ccc2cc3ccc(N)cc3nc2c1,GI50,[1],0.295 µM and 0.542 µM and 0.824 µM
same,TGI,[1],1.31 µM and 2.82 µM and 2.87 µM
same,GI50,[3],1.18 µM
same,TGI,[10],7.94 µM and 5.03 µM and 8.4 µM
same,GI50,[5],1.95 µM [middle of 4 runs]
same,TGI,[6],6.14 µM and 6.32 µM and 7.11 µM
same,GI50,[7],1.7 µM
O=C(/C=C\c1ccc(NCc2ccc(C(=O)O)cc2)cc1)CCl,GI50,[1],1.65 µM
same,TGI,[1],3.24 µM
same,GI50,[2],15.3 µM
same,TGI,[2],29.1 µM
same,GI50,[3],11.2 µM
same,TGI,[3],23.7 µM
same,GI50,[10],12.7 µM
same,TGI,[10],27 µM
same,GI50,[4],3.14 µM
same,TGI,[4],11.6 µM
same,GI50,[5],3.35 µM
same,TGI,[5],12.7 µM
same,GI50,[7],11.7 µM
same,TGI,[7],24.6 µM
same,GI50,[8],17 µM
same,TGI,[8],34.3 µM
same,GI50,[9],17.2 µM
same,TGI,[9],33 µM
O=C1CSC(/C(=N/Nc2ccccc2)c2nc3ccccc3[nH]2)=N1,TGI,[1],> 100 µM
same,TGI,[2],> 100 µM
same,TGI,[3],> 100 µM
same,TGI,[4],> 100 µM
same,TGI,[5],> 100 µM
same,TGI,[6],49.7 µM
same,TGI,[7],73.2 µM
same,TGI,[8],> 100 µM
same,TGI,[9],> 100 µM
CCNC(=O)Nc1cccc(NC(=O)NCC)n1,TGI,[1],> 100 µM
same,TGI,[2],> 100 µM
same,TGI,[3],> 100 µM
same,TGI,[10],> 100 µM
same,TGI,[4],> 100 µM
same,TGI,[6],> 100 µM
same,TGI,[7],> 100 µM
same,TGI,[8],> 100 µM
same,TGI,[9],> 100 µM
COc1cc(NC(C)CCCN)c2nccc(C)c2c1 (centres undefined),TGI,[1],33.3 µM
same,TGI,[2],> 100 µM
same,TGI,[3],> 100 µM
same,TGI,[5],49.7 µM
same,TGI,[6],> 100 µM
same,TGI,[7],67.9 µM
same,TGI,[8],54.7 µM
same,TGI,[9],> 100 µM
